Measured values from patent US11053253B2, “Macrocyclic compounds for treatment of medical disorders” (Achillion Pharmaceuticals, Inc., priority 2017, dated 2021).
pIC50: −log10 of the molar value.

What follows are compounds tested against Human Factor D (Homo sapiens (Human), UniProt P00746) (assay: Human Factor D Assay). Conditions: Human Factor D 80 nM, substrate Z-L-Lys-SBzl, DTNB, A405; read-out: IC50 (Stars).
Type: biochemical
Procedure, shortened: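 Serum-purified enzyme (80 nM final) was preincubated with compound 5 min at room temperature in 50 mM Tris, 1M NaCl, pH 7.5. Z-L-Lys-SBzl and DTNB ([…] each, final) were added and A405 followed every 30 s for 30 min; IC50 from nonlinear regression of reaction rates.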

Human Factor D, sequence (P00746 26-253): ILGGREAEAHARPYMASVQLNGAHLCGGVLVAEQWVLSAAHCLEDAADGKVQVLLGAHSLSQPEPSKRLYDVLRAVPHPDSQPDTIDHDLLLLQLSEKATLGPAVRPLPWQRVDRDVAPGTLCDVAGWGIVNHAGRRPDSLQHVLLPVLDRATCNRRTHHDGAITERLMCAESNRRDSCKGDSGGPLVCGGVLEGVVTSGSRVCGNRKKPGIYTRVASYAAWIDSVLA

Structure (SMILES) | pIC50
CC(=O)c1nn2c3c(cc(-c4cnc(C)nc4)cc13)CCCCCCCc1cccc(n1)OC[C@@]13C[C@@H](C(=O)Nc4nc(Br)ccc4C)N(C(=O)C2)[C@@H]1C3 [Compound T-139] | > 6.00
CC(=O)c1nn2c3c(cc(-c4cnc(C)nc4)cc13)CCCCCCc1cccc(n1)OC[C@@]13C[C@@H](C(=O)Nc4nc(Br)ccc4C)N(C(=O)C2)[C@@H]1C3 [Compound T-140] | > 6.00
CC(=O)c1nn2c3c(cc(-c4cnc(C)nc4)cc13)CCCCCc1cccc(n1)OC[C@@]13C[C@@H](C(=O)Nc4nc(Br)ccc4C)N(C(=O)C2)[C@@H]1C3 [Compound T-141] | > 6.00
Cc1ncc(-c2cc3c4c(c2)c(C(N)=O)nn4CC(=O)N2[C@H](C(=O)Nc4nc(Br)ccc4C)C[C@@]4(CNC(=O)CCCC=CC3)C[C@@H]24)cn1 [Compound T-152] | > 6.00
Cc1ncc(-c2cc3c4c(c2)c(C(N)=O)nn4CC(=O)N2[C@H](C(=O)Nc4nc(Br)ccc4C)C[C@@]4(CNC(=O)CCCCCC3)C[C@@H]24)cn1 [Compound T-153] | > 6.00
Cc1ncc(-c2cc3c4c(c2)c(C#N)nn4CC(=O)N2[C@H](C(=O)Nc4nc(C(F)(F)F)ccc4C)C[C@@]4(COCC=CCCC3)C[C@@H]24)cn1 [Compound T-154] | > 6.00
Cc1ncc(-c2cc3c(C#N)nn4c3c(n2)CCCCCCOC[C@@]23C[C@@H](C(=O)Nc5nc(C(F)(F)F)ccc5C)N(C(=O)C4)[C@@H]2C3)cn1 [Compound T-155] | > 6.00
Cc1ncc(-c2cc3c(C(N)=O)nn4c3c(n2)CCCCCCOC[C@@]23C[C@@H](C(=O)Nc5nc(C(F)(F)F)ccc5C)N(C(=O)C4)[C@@H]2C3)cn1 [Compound T-156] | > 6.00
CC(=O)c1nn(CC(=O)N2[C@H]3C[C@@]4(CNC(=O)C(F)(F)CCCOCc5ccc(Br)nc5NC3=O)C[C@@H]24)c2ccc(-c3cnc(C)nc3)cc12 [Compound T-157] | > 6.00
CC(=O)c1nn(CC(=O)N2C[C@@]3(F)COCCCCOCc4ccc(Br)nc4NC(=O)[C@@H]2C3)c2cnc(-c3cnc(C)nc3)cc12 [Compound T-161] | > 6.00
CC(=O)c1nn(CC(=O)N2C[C@@]3(F)COCCCCOCc4ccc(Br)nc4NC(=O)[C@@H]2C3)c2ccc(-c3cnc(C)nc3)cc12 [Compound T-162] | > 6.00
CC(=O)c1nn2c3c(nc(-c4cnc(C)nc4)cc13)CCCCCCCOC[C@@]13C[C@@H](C(=O)Nc4nc(C(F)(F)F)ccc4C)N(C(=O)C2)[C@@H]1C3 [Compound T-163] | > 6.00
CC(=O)c1nn(CC(=O)N2[C@H]3C[C@@]4(CNC(=O)CCOCc5ccc(Br)nc5NC3=O)C[C@@H]24)c2ccc(-c3cnc(C)nc3)cc12 [Compound T-164] | > 6.00
CC(=O)c1nn(CC(=O)N2[C@H]3C[C@@]4(COc5cccc(n5)CCCCCCCc5ccc(Br)nc5NC3=O)C[C@@H]24)c2ccc(-c3cnc(C)nc3)cc12 [Compound T-165] | > 6.00
CC(=O)c1nn2c3c(cc(-c4cnc(C)nc4)cc13)CC=CCCCC(=O)NC[C@]1(F)CN(C[C@@H]1C(=O)Nc1nc(C(F)(F)F)ccc1C)C(=O)C2 [Compound T-167] | > 6.00
CC(=O)c1nn2c3c(cc(-c4cnc(C)nc4)cc13)CCCCCCC(=O)NC[C@@]1(F)C[C@@H](C(=O)Nc3nc(C(F)(F)F)ccc3C)N(C1)C(=O)C2 [Compound T-168] | > 6.00
CC(=O)c1nn(CC(=O)N2C[C@@]3(F)CNC(=O)CCCCCOCc4ccc(Br)nc4NC(=O)[C@@H]2C3)c2cnc(-c3cnc(C)nc3)cc12 [Compound T-169] | > 6.00
CC(=O)c1nn(CC(=O)N2C[C@@]3(F)CNC(=O)C(C)(C)CC=CCOCc4ccc(Br)nc4NC(=O)[C@@H]2C3)c2cnc(-c3cnc(C)nc3)cc12 [Compound T-170] | > 6.00
CC(=O)c1nn(CC(=O)N2C[C@@]3(F)CNC(=O)C(C)(C)CCCCOCc4ccc(Br)nc4NC(=O)[C@@H]2C3)c2cnc(-c3cnc(C)nc3)cc12 [Compound T-171] | > 6.00
CC(=O)c1nn(CC(=O)N2C[C@@]3(F)CNC(=O)C(C)(C)CC=CCOCc4ccc(Br)nc4NC(=O)[C@@H]2C3)c2ccc(-c3cnc(C)nc3)cc12 [Compound T-172] | > 6.00
CC(=O)c1nn(CC(=O)N2C[C@@]3(F)CNC(=O)C(C)(C)CCCCOCc4ccc(Br)nc4NC(=O)[C@@H]2C3)c2ccc(-c3cnc(C)nc3)cc12 [Compound T-173] | > 6.00
CC(=O)c1nn2c3c(cc(-c4cnc(C)nc4)cc13)CC=CCCCC(=O)NC[C@@]1(F)C[C@@H](C(=O)Nc3nc(Br)ccc3C)N(C1)C(=O)C2 [Compound T-174] | > 6.00
CC(=O)c1nn2c3c(cc(-c4cnc(C)nc4)cc13)CCCCCCC(=O)NC[C@@]1(F)C[C@@H](C(=O)Nc3nc(Br)ccc3C)N(C1)C(=O)C2 [Compound T-175] | > 6.00
CC(=O)c1nn2c3c(cc(-c4cnc(C)nc4)cc13)CCCCCCC(=O)NC[C@@]13C[C@@H](C(=O)N[C@@H](C)c4ccccc4)N(C(=O)C2)[C@@H]1C3 [Compound T-176] | > 6.00
CC(=O)c1nn2c3c(cc(-c4cnc(C)nc4)cc13)CCCCCCC(=O)NC[C@@]13C[C@@H](C(=O)NCCC(C)(C)C)N(C(=O)C2)[C@@H]1C3 [Compound T-177] | > 6.00

Structure (SMILES) | pIC50
CC(=O)c1nn(CC(=O)N2C[C@@]3(F)CNC(=O)CCCCCOCc4ccc(Br)nc4NC(=O)[C@@H]2C3)c2ccc(-c3cnc(C)nc3)cc12 [Compound T-178] | > 6.00
CC(=O)c1nn(CC(=O)N2C[C@@]3(F)COCCCCCCc4ccc(Br)nc4NC(=O)[C@@H]2C3)c2cnc(-c3cnc(C)nc3)cc12 [Compound T-179] | > 6.00
CC(=O)c1nn(CC(=O)N2[C@H]3C[C@@]4(CNC(=O)C(C)(C)CCCCCc5ccc(Br)nc5NC3=O)C[C@@H]24)c2cnc(-c3cnc(C)nc3)cc12 [Compound T-180] | > 6.00
CC(=O)c1nn(CC(=O)N2[C@H]3C[C@@]4(CNC(=O)C(C)(C)CCCCc5ccc(Br)nc5NC3=O)C[C@@H]24)c2cnc(-c3cnc(C)nc3)cc12 [Compound T-181] | > 6.00
CC(=O)c1nn(CC(=O)N2[C@H]3C[C@@]4(CNC(=O)C(C)(C)CCCCCc5ccc(Br)nc5NC3=O)C[C@@H]24)c2ccc(-c3cnc(C)nc3)cc12 [Compound T-182] | > 6.00
CC(=O)c1nn(CC(=O)N2[C@H]3C[C@@]4(CNC(=O)C(C)(C)CCCCc5ccc(Br)nc5NC3=O)C[C@@H]24)c2ccc(-c3cnc(C)nc3)cc12 [Compound T-183] | > 6.00
CC(=O)c1nn2c3c(cc(-c4cnc(C)nc4)cc13)CC=CCCC(C)(C)C(=O)NC[C@@]13C[C@@H](C(=O)Nc4ccn(CC(F)(F)F)n4)N(C(=O)C2)[C@@H]1C3 [Compound T-184] | > 6.00
CC(=O)c1nn2c3c(cc(-c4cnc(C)nc4)cc13)CCCCCC(C)(C)C(=O)NC[C@@]13C[C@@H](C(=O)Nc4ccn(CC(F)(F)F)n4)N(C(=O)C2)[C@@H]1C3 [Compound T-185] | > 6.00
CC(=O)c1nn2c3c(cc(-c4cnc(C)nc4)cc13)CCCCCC(C)(C)C(=O)N(C)C[C@@]13C[C@@H](C(=O)Nc4cccc(C(F)(F)F)n4)N(C(=O)C2)[C@@H]1C3 [Compound T-186] | > 6.00
Cc1ncc(-c2cc3c4c(c2)c(C(N)=O)nn4CC(=O)N2[C@H](C(=O)Nc4nc(C(F)(F)F)ccc4C)C[C@@]4(COCCCCCCC3)C[C@@H]24)cn1 [Compound T-187] | > 6.00
CC(=O)c1nn2c3c(cc(-c4cnc(C)nc4)cc13)CCCCCCC(=O)NC[C@@]13C[C@@H](C(=O)N[C@H](C)c4ccccc4)N(C(=O)C2)[C@@H]1C3 [Compound T-188] | > 6.00
CC(=O)c1nn2c3c(cc(-c4cnc(C)nc4)cc13)CC=CCCCC(=O)NC[C@@]13C[C@@H](C(=O)Nc4cc(C)cc(Br)n4)N(C(=O)C2)[C@@H]1C3 [Compound T-189] | > 6.00
CC(=O)c1nn2c3c(cc(-c4cnc(C)nc4)cc13)CCCCCCC(=O)NC[C@@]13C[C@@H](C(=O)Nc4cc(C)cc(Br)n4)N(C(=O)C2)[C@@H]1C3 [Compound T-190] | > 6.00
CC(=O)c1nn2c3c(cc(-c4cnc(C)nc4)cc13)CCCCCC(C)(C)C(=O)N(C)C[C@@]13C[C@@H](C(=O)Nc4ccn(CC(F)(F)F)n4)N(C(=O)C2)[C@@H]1C3 [Compound T-191] | > 6.00
CC(=O)c1nn(CC(=O)N2[C@H]3C[C@@]4(COCC=CCOCc5ccc(Br)nc5NC3=O)C[C@@H]24)c2c(C)cc(-c3cnc(C)nc3)cc12 [Compound T-192] | > 6.00
CC(=O)c1nn(CC(=O)N2[C@H]3C[C@@]4(COCC=CCOCc5ccc(Br)nc5NC3=O)C[C@@H]24)c2c(C)nc(-c3cnc(C)nc3)cc12 [Compound T-193] | > 6.00
CC(=O)c1nn(CC(=O)N2C[C@@]3(F)COCCCCCCCCc4ccc(Br)nc4NC(=O)[C@@H]2C3)c2ccc(-c3cnc(C)nc3)cc12 [Compound T-194] | > 6.00
CC(=O)c1nn(CC(=O)N2C[C@@]3(F)COCCCCCCc4ccc(Br)nc4NC(=O)[C@@H]2C3)c2ccc(-c3cnc(C)nc3)cc12 [Compound T-195] | > 6.00
CC(=O)c1nn2c3c(cc(-c4cnc(C)nc4)cc13)CCCCCCC(=O)NC[C@@]13C[C@@H](C(=O)NC[Si](C)(C)C)N(C(=O)C2)[C@@H]1C3 [Compound T-196] | 5.00 to 6.00
CC(=O)c1nn2c3c(cc(-c4cnc(C)nc4)cc13)CCCCCCC(=O)NC[C@@]13C[C@@H](C(=O)NC/C(F)=C(/C)c4ccccc4)N(C(=O)C2)[C@@H]1C3 [Compound T-197] | > 6.00
CC(=O)c1nn2c3c(cc(-c4cnc(C)nc4)cc13)CCCCCCC(=O)NC[C@@]13C[C@@H](C(=O)NCC(F)=C(C)C)N(C(=O)C2)[C@@H]1C3 [Compound T-198] | > 6.00
CCCCNC(=O)[C@@H]1C[C@]23CNC(=O)CCCCCCc4cc(-c5cnc(C)nc5)cc5c(C(C)=O)nn(c45)CC(=O)N1[C@@H]2C3 [Compound T-199] | > 6.00
CCCCCNC(=O)[C@@H]1C[C@]23CNC(=O)CCCCCCc4cc(-c5cnc(C)nc5)cc5c(C(C)=O)nn(c45)CC(=O)N1[C@@H]2C3 [Compound T-200] | > 6.00
CC(=O)c1nn2c3c(cc(-c4cnc(C)nc4)cc13)CCCCCCC(=O)NC[C@@]13C[C@@H](C(=O)NCC(C)(C)C)N(C(=O)C2)[C@@H]1C3 [Compound T-201] | > 6.00
